Experiments:
[1] = Catalysis of toluene diisocyanate condensation to cellular/resinous carbodiimide products (Table I); settings: 100 parts toluene diisocyanate
Experimental: Utilizing the triazines of Examples III-VI hereof, a series of cellular and resinous products characterized by carbodiimide linkages, as defined in the above-referred to patents, were prepared by the following procedure:
(§1) One hundred parts of toluene diisocyanate was admixed with a catalyst in accordance herewith. With stirring, the admixture was heated to its reaction initiation temperature at which time the reactants were transferred to a separate container for foaming.

[2] = Efficacy of triazine catalysts with 1 part methanol in the catalyst blend (Table II); settings: 1 part of methanol introduced into the catalyst blend
Experimental: as §1
To test the efficacy of the instant catalysts, samples analogous to samples C, D and Control were prepared, but wherein 1 part of methanol was introduced into the catalyst blend.

Row | Structure (SMILES) | Initiation Temperature ([1]; catalyst 1.0 part) [°C] | Max. Exotherm ([1]; catalyst 1.0 part) [°C] | Nature of Product ([1]; catalyst 1.0 part) | Initiation Temp. [2] [°C] | Nature of Product [2] | Initiation Temperature ([1]; catalyst 2.0 parts) [°C] | Max. Exotherm ([1]; catalyst 2.0 parts) [°C] | Nature of Product ([1]; catalyst 2.0 parts) | Maximum Exotherm [2] [°C]
1 | CCN(CC)c1nc(N(C)CCO)nc(N(CC)CC)n1 [DMT, 2,4-bis(diethylamino)-6-N-methylethanolamine-s-triazine, reference compound] | 124 | 185 | Foam | 25 | No Foam | – | – | – | –
2 | CN(C)CCCN(CCO)c1nc(N(CCO)CCCN(C)C)nc(N(CCO)CCCN(C)C)n1 [Example III, 2,4,6-tris[3-dimethylamino-N-(2-hydroxyethyl)propylamino]-s-triazine] | – | – | – | – | – | 95 | 180 | Foam | –
3 | CN(C)CCCN(CCCN(C)C)c1nc(N(C)CCO)nc(N(CCCN(C)C)CCCN(C)C)n1 [Example IV, 2,4-bis[bis(3-dimethylaminopropyl)amino]-6-(N-methyl-2-hydroxyethylamino)-s-triazine] | – | – | – | – | – | 100 | 188 | Foam | –
4 | CCCCN(CCCC)c1nc(N(CCO)CCCN(C)C)nc(N(CCCC)CCCC)n1 [Example V, 2,4-bis(dibutylamino)-6-[3-dimethylamino-N-(2-hydroxyethyl)propylamino]-s-triazine] | 95 | 197 | Resin | 25 | Foam | – | – | – | –
5 | CCN(CC)CCN(C)c1nc(N(C)CCO)nc(N(C)CCN(CC)CC)n1 [Example VI, 2,4-bis(N-methyl-2-diethylaminoethylamino)-6-(N-methyl-2-hydroxyethylamino)-s-triazine] | 94 | 140 | Resin | 25 | Foam | – | – | – | 177
